# Molecular target: T1, Recombinant (1-346) HPK1 (h) (Homo sapiens, UniProt Q92918)
# T1 construct: Recombinant (1-346) HPK1 (h) is incubated with 8 mM MOPS pH 7.0
# T1 sequence (Q92918 1-346): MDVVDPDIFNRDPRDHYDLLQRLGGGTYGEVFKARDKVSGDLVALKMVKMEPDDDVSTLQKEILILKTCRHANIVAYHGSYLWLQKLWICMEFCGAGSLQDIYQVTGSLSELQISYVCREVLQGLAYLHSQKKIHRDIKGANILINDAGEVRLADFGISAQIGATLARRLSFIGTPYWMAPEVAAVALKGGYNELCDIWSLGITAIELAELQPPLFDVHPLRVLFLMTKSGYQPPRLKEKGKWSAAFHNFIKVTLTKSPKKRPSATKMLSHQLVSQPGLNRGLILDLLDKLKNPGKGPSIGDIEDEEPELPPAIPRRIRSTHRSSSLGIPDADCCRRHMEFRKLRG
# Assay: HPK1 Human STE Kinase Enzymatic Radiometric Assay
# Assay type: biochemical
# Conditions: read-out: HPK1 IC50 nM Range*
# Experimental: A stock solution of 10 mM of test compound is prepared in DMSO. The compound plate was prepared by 3-fold and 9-point serial dilutions. […] The reaction is initiated by The addition of the Mg/ATP mix. After incubation for 40 minutes at RT, the reaction is stopped by the addition of phosphoric acid to a concentration of 0.5%.
row,Compound,IC50
1,"Cc1[nH]c(=O)c2ccc(-c3cc(-c4ccc(C5CCOCC5)c(CN(C)C)c4)c(F)nc3N)cc2c1F [I-521, 6-(2-amino-5-(3-((dimethylamino)methyl)-4-(tetrahydro-2H-pyran-4-yl)phenyl)-6-fluoropyridin-3-yl)-4-fluoro-3-methylisoquinolin-1(2H)-one]",11 to 100 nM
2,"COC1CN(Cc2cc(-c3cc(-c4ccc5c(c4)CCNC5=O)c(N)nc3F)ccc2N2CCOCC2)C1 [I-522, 6-(2-amino-6-fluoro-5-(3-((3-methoxyazetidin-1-yl)methyl)-4-morpholinophenyl)pyridin-3-yl)-3,4-dihydroisoquinolin-1(2H)-one]",11 to 100 nM
3,"COC1CN(Cc2cc(-c3cc(-c4cc5c(cc4F)C(=O)NCC5)c(N)nc3F)ccc2N2CCOCC2)C1 [I-523, 6-(2-amino-6-fluoro-5-(3-((3-methoxyazetidin-1-yl)methyl)-4-morpholinophenyl)pyridin-3-yl)-7-fluoro-3,4-dihydroisoquinolin-1(2H)-one]",11 to 100 nM
4,"CN(C)Cc1cc(-c2cc(-c3ccc4c(c3)CCNC4=O)c(N)nc2F)ccc1OCCCC(F)F [I-524, 6-(2-amino-5-(4-(4,4-difluorobutoxy)-3-((dimethylamino)methyl)phenyl)-6-uoropyridin-3-yl)-3,4-dihydroisoquinolin-1(2H)-one]",0.1 to 10 nM
5,"CN(C)Cc1cc(-c2cc(-c3cc4c(cc3F)C(=O)NCC4)c(N)nc2F)ccc1OCCCC(F)F [I-525, 6-(2-amino-5-(4-(4,4-difluorobutoxy)-3-((dimethylamino)methyl)phenyl)-6-fluoropyridin-3-yl)-7-fluoro-3,4-dihydroisoquinolin-1(2H)-one]",11 to 100 nM
6,"COC1CCN(Cc2cc(-c3cc(-c4ccc5c(c4)CCNC5=O)c(N)nc3F)ccc2OCCCC(F)F)CC1 [I-526, 6-(2-amino-5-(4-(4,4-difluorobutoxy)-3-((4-methoxypiperidin-1-yl)methyl)phenyl)-6-fluoropyridin-3-yl)-3,4-dihydroisoquinolin-1(2H)-one]",11 to 100 nM
7,"COC1CCN(Cc2cc(-c3cc(-c4cc5c(cc4F)C(=O)NCC5)c(N)nc3F)ccc2OCCCC(F)F)CC1 [I-527, 6-(2-amino-5-(4-(4,4-difluorobutoxy)-3-((4-methoxypiperidin-1-yl)methyl)phenyl)-6-fluoropyridin-3-yl)-7-fluoro-3,4-dihydroisoquinolin-1(2H)-one]",11 to 100 nM
8,"Nc1nc(F)c(-c2ccc(C3=CCOCC3)cc2CO)cc1-c1cc2c(cc1F)C(=O)NCC2 [I-528, 6-(2-amino-5-(4-(3,6-dihydro-2H-pyran-4-yl)-2-(hydroxymethyl)phenyl)-6-fluoropyridin-3-yl)-7-fluoro-3,4-dihydroisoquinolin-1(2H)-one]",101 to 1000 nM
9,"Cc1[nH]c(=O)c2c(F)cc(-c3cc(-c4ccc(N5CCN(CC6CC6)CC5)cc4)c(F)nc3N)cc2c1F [I-529, 6-(2-amino-5-(4-(4-(cyclopropylmethyl)piperazin-1-yl)phenyl)-6-fluoropyridin-3-yl)-4,8-difluoro-3-methylisoquinolin-1(2H)-one]",0.1 to 10 nM
10,"CN(C)Cc1cc(-c2cc(-c3ccc4c(c3)CCNC4=O)c(N)nc2F)ccc1OC1CCOCC1 [I-530, 6-(2-amino-5-(3-((dimethylamino)methyl)-4-((tetrahydro-2H-pyran-4-yl)oxy)phenyl)-6-fluoropyridin-3-yl)-3,4-dihydroisoquinolin-1(2H)-one]",11 to 100 nM
11,"CN(C)Cc1cc(-c2cc(-c3cc4c(cc3F)C(=O)NCC4)c(N)nc2F)ccc1OC1CCOCC1 [I-531, 6-(2-amino-5-(3-((dimethylamino)methyl)-4-((tetrahydro-2H-pyran-4-yl)oxy)phenyl)-6-fluoropyridin-3-yl)-7-fluoro-3,4-dihydroisoquinolin-1(2H)-one]",11 to 100 nM
12,"CN(C)Cc1cc(-c2cc(-c3ccc4c(c3)CCNC4=O)c(N)nc2F)ccc1OCC1CCOCC1 [I-532, 6-(2-amino-5-(3-((dimethylamino)methyl)-4-((tetrahydro-2H-pyran-4-yl)methoxy)phenyl)-6-fluoropyridin-3-yl)-3,4-dihydroisoquinolin-1(2H)-one]",11 to 100 nM
13,"CN(C)Cc1cc(-c2cc(-c3cc4c(cc3F)C(=O)NCC4)c(N)nc2F)ccc1OCC1CCOCC1 [I-533, 6-(2-amino-5-(3-((dimethylamino)methyl)-4-((tetrahydro-2H-pyran-4-yl)methoxy)phenyl)-6-fluoropyridin-3-yl)-7-fluoro-3,4-dihydroisoquinolin-1(2H)-one]",0.1 to 10 nM
14,"Cc1[nH]c(=O)c2c(F)cc(-c3cc(-c4ccc(N5CCOCC5)c(CN(C)C)c4)c(F)nc3N)cc2c1F [I-534, 6-(2-amino-5-(3-((dimethylamino)methyl)-4-morpholinophenyl)-6-fluoropyridin-3-yl)-4,8-difluoro-3-methylisoquinolin-1(2H)-one]",11 to 100 nM
15,"Cc1[nH]c(=O)c2c(F)cc(-c3cc(-c4ccc(C5CCOCC5)c(CN(C)C)c4)c(F)nc3N)cc2c1F [I-535, 6-(2-amino-5-(3-((dimethylamino)methyl)-4-(tetrahydro-2H-pyran-4-yl)phenyl)-6-fluoropyridin-3-yl)-4,8-difluoro-3-methylisoquinolin-1(2H)-one]",11 to 100 nM
16,"COc1ccc(-c2cc(-c3ccc4c(c3)CCNC4=O)c(N)nc2F)cc1CO [I-536, 6-(2-amino-6-fluoro-5-(3-(hydroxymethyl)-4-methoxyphenyl)pyridin-3-yl)-3,4-dihydroisoquinolin-1(2H)-one]",11 to 100 nM
17,COc1c[nH]c(=O)c2ccc(-c3cc(-c4ccc(N5CCN(C(C)C)CC5)cc4)c(F)nc3N)cc12 [I-537],0.1 to 10 nM
18,"Cc1[nH]c(=O)c2ccc(-c3cc(-c4ccc(N5CCN(C(C)C)CC5)cc4)c(F)nc3N)cc2c1Cl [I-538, 6-(2-amino-6-fluoro-5-(4-(4-isopropylpiperazin-1-yl)phenyl)pyridin-3-yl)-4-chloro-3-methylisoquinolin-1(2H)-one]",0.1 to 10 nM
19,"CN1CCOC2(C1)CN(c1ccc(-c3cc(-c4cc5c(cc4F)C(=O)NCC5)c(N)nc3F)cc1)C2 [I-539, 6-(2-amino-6-fluoro-5-(4-(8-methyl-5-oxa-2,8-diazaspiro[3.5]nonan-2-yl)phenyl)pyridin-3-yl)-7-fluoro-3,4-dihydroisoquinolin-1(2H)-one]",0.1 to 10 nM
20,"COC1CCN(Cc2cc(-c3cc(-c4ccc5c(c4)CCNC5=O)c(N)nc3F)ccc2C2CCOCC2)CC1 [I-540, 6-(2-amino-6-fluoro-5-(3-((4-methoxypiperidin-1-yl)methyl)-4-(tetrahydro-2H-pyran-4-yl)phenyl)pyridin-3-yl)-3,4-dihydroisoquinolin-1(2H)-one]",11 to 100 nM
21,"COC1CCN(Cc2cc(-c3cc(-c4cc5c(cc4F)C(=O)NCC5)c(N)nc3F)ccc2C2CCOCC2)CC1 [I-541, 6-(2-amino-6-fluoro-5-(3-((4-methoxypiperidin-1-yl)methyl)-4-(tetrahydro-2H-pyran-4-yl)phenyl)pyridin-3-yl)-7-fluoro-3,4-dihydroisoquinolin-1(2H)-one]",11 to 100 nM
22,"COC1CCN(Cc2cc(-c3cc(-c4ccc5c(c4)CCNC5=O)c(N)nc3F)ccc2N2CCOCC2)C1 (centres unmarked) [I-542, 6-(2-amino-6-fluoro-5-(3-((3-methoxypyrrolidin-1-yl)methyl)-4-morpholinophenyl)pyridin-3-yl)-3,4-dihydroisoquinolin-1(2H)-one]",11 to 100 nM
23,"Nc1nc(F)c(-c2ccc(N3CCN(CCCC(F)F)CC3)cc2)cc1-c1ccc2c(=O)[nH]cc(F)c2c1 [I-544, 6-(2-amino-5-(4-(4-(4,4-difluorobutyl)piperazin-1-yl)phenyl)-6-fluoropyridin-3-yl)-4-fluoroisoquinolin-1(2H)-one]",0.1 to 10 nM
24,"Cc1c[nH]c(=O)c2ccc(-c3cc(-c4ccc(N5CCN(C6CCC6)CC5)cc4)c(F)nc3N)cc12 [I-545, 6-(2-amino-5-(4-(4-cyclobutylpiperazin-1-yl)phenyl)-6-fluoropyridin-3-yl)-4-methylisoquinolin-1(2H)-one]",0.1 to 10 nM
25,"Nc1nc(F)c(-c2ccc(N3CCN(C4CCC4)CC3)cc2)cc1-c1ccc2c(=O)[nH]cc(F)c2c1 [I-546, 6-(2-amino-5-(4-(4-cyclobutylpiperazin-1-yl)phenyl)-6-fluoropyridin-3-yl)-4-fluoroisoquinolin-1(2H)-one]",0.1 to 10 nM
26,"CC(C)N1CCN(c2ccc(-c3cc(-c4cc5c(F)c[nH]c(=O)c5cc4F)c(N)nc3F)cc2)CC1 [I-547, 6-(2-amino-6-fluoro-5-(4-(4-isopropylpiperazin-1-yl)phenyl)pyridin-3-yl)-4,7-difluoroisoquinolin-1(2H)-one]",0.1 to 10 nM
27,"Nc1nc(F)c(-c2ccc(N3CCOCC3)c(CN3CCC3)c2)cc1-c1ccc2c(c1)CCNC2=O [I-549, 6-(2-amino-5-(3-(azetidin-1-ylmethyl)-4-morpholinophenyl)-6-fluoropyridin-3-yl)-3,4-dihydroisoquinolin-1(2H)-one]",11 to 100 nM
28,"Nc1nc(F)c(-c2ccc(N3CCOCC3)c(CN3CCC3)c2)cc1-c1cc2c(cc1F)C(=O)NCC2 [I-550, 6-(2-amino-5-(3-(azetidin-1-ylmethyl)-4-morpholinophenyl)-6-fluoropyridin-3-yl)-7-fluoro-3,4-dihydroisoquinolin-1(2H)-one]",11 to 100 nM
29,"CCN(C)Cc1cc(-c2cc(-c3cc4c(cc3F)C(=O)NCC4)c(N)nc2F)ccc1C1CCOCC1 [I-552, 6-(2-amino-5-(3-((ethyl(methyl)amino)methyl)-4-(tetrahydro-2H-pyran-4-yl)phenyl)-6-fluoropyridin-3-yl)-7-fluoro-3,4-dihydroisoquinolin-1(2H)-one]",11 to 100 nM

# Reference: patent publication US20240343704A1, “HALO-SUBSTITUTED AMINO PYRIDINE COMPOUNDS AS INHIBITORS OF THE HAEMATOPOIETIC PROGENITOR KINASE 1 (HPK1)” (priority 2021, published 2024)
